{
  "source": "patent US8853264B2",
  "about": "“Use of lignan compounds for treating or preventing inflammatory disease” (Newtree Industry Co., Ltd., priority 2005, dated 2014)",
  "key": {"[1]": {"tested_on": "inflammatory cells, mast cells, eosinophils", "experiment": "Skin staining (H&E, Toluidine blue, Congo red), atopic dermatitis model", "format": "in vivo, NC/Nga mice", "experimental": "8-week-old NC/Nga mice (20-25 g) were purchased from Chungang Lab. Animal. After adapting for 1 week, the NC/Nga mouse was anesthetized with 90% ethyl ether (Ducsan, Korea) and hair was removed from the occipital region and the back of the mouse using depilatory cream (Reckitt Benckiser, France). After allowing micro wound healing for a day, 100 mg of mite antigen cream (Biostir, Inc. Japan) comprising Dermatophagoides farina, which causes atopic dermatitis, as a main ingredient was evenly applied on the ear, occipital region and back, 3 times a week (for 5 weeks, from week 9 to week 13). 2 hours before application of the mite antigen cream, 4% SDS solution was applied at the same area to increase transdermal absorption of the mite antigen cream by inducing the breakdown of skin fats and cuticle layer. From week 3 following the application, IgE value was measured to quantitate the degree of atopic dermatitis. Also during the drug treatment period (week 12 to week 13), 100 mg of the mite antigen cream was applied 3 times a week to prevent spontaneous healing of the atopic dermatitis.\nIn order to induce atopic dermatitis, 100 mg of mite antigen cream was applied on the ear, occipital region and back of NC/Nga mouse (9 to 11 weeks old), except for the negative control group, 3 times a week, 2 hours after the application of 4% SDS solution. Three weeks later, it was observed whether atopic dermatitis was induced by checking skin rash, erythema, cornification, or the like. Atopic dermatitis was induced in all groups except for the negative control group. For drug treatment and evaluation of therapeutic effect, mice were grouped into 12 groups, 6 oral administration groups and 6 topical application groups (each consisting of negative control group, positive control group, macelignan low conc. group, macelignan high conc. group, nutmeg extract low conc. group, and nutmeg extract high conc. group), with n=5 per cage. During the following drug treatment and evaluation period of 2 weeks (12 to 13 weeks old), the negative control groups, which had not been treated with 4% SDS solution and mite antigen cream, were treated with physiological saline (oral administration group) or base cream (topical application group) every day, and the positive control groups, which had been treated with 100 mg of mite antigen cream 2 hours after application of 4% SDS solution, 3 times every week, were treated with physiological saline (oral administration group) or base cream (topical application group). The oral administration groups were treated with 100 mg of mite antigen cream 2 hours after application of 4% SDS solution, 3 times every week, and were treated with macelignan or nutmeg extract at low concentration (50 mg/kg/day) or high concentration (150 mg/kg/day) every day. The topical application groups were treated with 100 mg of mite antigen cream 2 hours after application of 4% SDS solution, 3 times every week, and were treated with macelignan cream or nutmeg extract cream at low concentration (20 mg/kg/day) or high concentration (60 mg/kg/day) every day. Transepidermal water loss (TEWL), skin hydration and erythema index were measured one day before the end of the test. Serum was obtained by retro-orbital blood sampling. After the end of the test (14 weeks old) spleen and skin tissues from occipital region and back were sampled and stored at −70° C. ALN (axillary lymph node) was stored in DMEM containing 2% FBS (fetal bovine serum). The skin tissues were stored in 10% formalin solution.\nAfter the end of the experiment, skin was isolated from the occipital region. Hematoxylin/eosin (H&E) staining was performed to examine change of inflammatory cells such as mast cells, neutrophils, eosinophils, etc. in the epidermis, dermis and keratinocytes and change of skin thickness. Toluidine blue staining was performed to selectively stain the mast cells, and congo red staining was performed to selectively stain the eosinophils."}, "[2]": {"tested_on": "edemas of the rat ears induced by TPA", "experiment": "TPA-induced rat ear edema inhibition test", "format": "in vivo, Wistar rats", "conditions": "for Edema thickness: topical in acetone 30 min after TPA, measured after 8 hours", "experimental": "The anti-inflammatory activity of the lignan compound isolated and purified in <Example 1> was tested in animal models. The anti-inflammatory activity was measured by edema inhibition test on rats. As the test animals, 5-week-old Wistar rats (DaeHan Biolink Co., Ltd, Korea) were used. The animals were provided with standard pellet forming rat feed (Cheiljedang Corporation, Korea) and given freely to feed and water. Also, the animals were housed in conditions of 12-hr light/12-hr dark cycle, temperature of 25±2° C. and humidity of 60±10%. Inflammation inducing agent TPA (12-O-tetradecanoylphorbol-13-acetate; Sigma) was dissolved in acetone to a concentration of 200 μg/mL. The edemas of the rat ears were induced by applying the TPA solution locally to each of the outer and inner faces of the ear in an amount of 10 μl/ear (4 μg/ear). The macelignan purified in <Example 1> and non-steroidal anti-inflammatory drug indomethacin as a control substance were dissolved in acetone and used in amounts of 20, 200 and 2000 μg/ear. Each of the macelignan and the indomethacin was applied locally to the rat ears at 30 minutes after treatment with TPA. A control group was locally applied with acetone. The thickness of the rat ears was measured with a caliper 8 hours after treatment with each of the substances. An increase in the ear thickness in the group treated with the sample was compared to that of the group untreated with the sample, and inflammation inhibitory effect was measured by calculating percent edema inhibition."}, "[3]": {"tested_on": "eosinophils", "experiment": "Counting of immune cells in bronchioalveolar lavage (BAL) fluid, asthma model", "format": "in vivo, C57BL/6 (B6) male mice", "conditions": "oral 400 μg/g and 800 μg/g", "experimental": "5 μL of allergen, AP (aspergillus protease, 1 mg/mL, Sigma-Aldrich, St. Louis, Mo.) was mixed with 45 μL of OVA (chicken egg ovalbumin, 0.5 mg/mL, Sigma-Aldrich). After 3 intraperitoneal injections with 4-day intervals, asthma was induced by 2 intranasal challenges with 4-day interval. The intranasal challenge was performed under isoflurane inhalational anesthesia. Macelignan dissolved in corn oil was orally administered every day.\nWithin 24 hours after the last allergen challenge, the mouse was anesthetized by intraperitoneal injection of 0.1 mg/g sodium pentobarbital. After tracheal intubation, flexiVent (Scireq®, Montreal, Canada) was connected to maintain stable ventilation. Thereafter, striated muscle was relaxed by intravenous (IV) administration of 0.08 mg/kg pancuronium (Sigma-Aldrich). Following airway hypersensitivity test by IV administration of acetylcholine (Sigma-Aldrich), 1 mL of DPBS (Dulbecco's phosphate buffered saline) was injected twice into the intubation tube using a syringe for bronchioalveolar lavage. Thereafter, the chest was opened and the lungs were subjected to ELISpot assay. […]\nWhen asthma is induced, various inflammatory cells increase in the airway. […] After performing BAL once again and collecting the BAL fluid, its volume was measured. […]"}, "[4]": {"conditions": "oral administration 50 and 150 mg/kg"}, "[5]": {"conditions": "topical application 20 and 60 mg/kg"}},
  "data": [
    {"smiles": "COc1cc(C[C@H](C)[C@H](C)Cc2ccc3c(c2)OCO3)ccc1O", "note": "(single isomer, unassigned) [macelignan]", "values": [
      {"measurement": "Congo red staining: eosinophils", "setting": "[1]; [4]", "result": "effect of decreasing eosinophils"},
      {"measurement": "H&E staining: inflammatory cells and epidermal thickness", "setting": "[1]; [4]", "result": "effect of decreasing inflammatory cells and increased epidermal thickness"},
      {"measurement": "Toluidine blue staining: mast cells", "setting": "[1]; [4]", "result": "effect of decreasing mast cells"},
      {"measurement": "Congo red staining: eosinophils", "setting": "[1]; [5]", "result": "effect of decreasing eosinophils"},
      {"measurement": "H&E staining: inflammatory cells and epidermal thickness", "setting": "[1]; [5]", "result": "effect of decreasing inflammatory cells and increased epidermal thickness"},
      {"measurement": "Toluidine blue staining: mast cells", "setting": "[1]; [5]", "result": "effect of decreasing mast cells"},
      {"measurement": "Edema inhibition", "setting": "[2]; dose 20 μg/ear", "result": 36.7, "unit": "%"},
      {"measurement": "Edema thickness", "setting": "[2]; dose 20 μg/ear", "result": "157 ± 9", "unit": "μm"},
      {"measurement": "Edema inhibition", "setting": "[2]; dose 200 μg/ear", "result": 60.5, "unit": "%"},
      {"measurement": "Edema thickness", "setting": "[2]; dose 200 μg/ear", "result": "98 ± 6", "unit": "μm"},
      {"measurement": "Edema inhibition", "setting": "[2]; dose 2000 μg/ear", "result": 79.0, "unit": "%"},
      {"measurement": "Edema thickness", "setting": "[2]; dose 2000 μg/ear", "result": "52 ± 4", "unit": "μm"},
      {"measurement": "percent edema inhibition compared with indomethacin", "setting": "[2]; local application on rat ears", "result": "higher than that of currently commercially available anti-inflammatory drug indomethacin"},
      {"measurement": "rat edema induced by TPA (result in words)", "setting": "[2]; local application on rat ears", "result": "inhibited the formation of edema in a concentration-dependent manner"},
      {"measurement": "other immune cells in the BAL fluid", "setting": "[3]", "result": "Decrease of other immune cells was not observed"},
      {"measurement": "eosinophils in the BAL fluid", "setting": "[3]; vs vehicle (corn oil) group", "result": "decreased eosinophils"}
    ]}
  ]
}
